# In patent publication US12239132B2, “Compounds and methods for increasing soil nutrient availability” (SOUND AGRICULTURE COMPANY, priority 2018, dated 2025):
# Tests used:
# Bradyrhizobium japonicum = assay: RNASeq gene expression in Bradyrhizobium japonicum; format: cell-based
# Procedure: Expression levels for all genes in a nitrogen fixing bacteria (Bradyrhizobium japonicum) were measured in the presence or absence of AB09 using Illumina RNASeq technology.
# [1] = tested on: nif operon structural genes (nifH, nifD, and nifK); assay: RNA-seq of Azotobacter vinlandii; format: cell-based; conditions: 25 ug/mL, nitrogen free media, 48 h, RNA-seq (FPKM)
# Procedure: Global gene expression profiles of Azotobacter vinlandii grown in nitrogen free media were compared with and without AB09 treatment using RNA sequencing (RNA-seq).
# A starter liquid culture of A. vinlandii in Burks-N media (at OD600=0.02) was divided into six flasks. Three flasks received AB09 at 25 ug/mL and three received a mock treatment. RNA was collected at 48 h of growth. One mL of 48 h cultures of Azotobacter vinlandii were pelleted for 3 minutes as 13,000 rpm. Supernatant was removed and pellets were flash frozen in liquid nitrogen. RNA was extracted with the Norgen RNA extraction kit. Ribo-depletion and sequencing libraries were constructed by Seqmatic, Inc. (Fremont, CA). Illumina single-end reads of 150 nt were mapped using bowtie (-v 2 -k2 -chunkmbs 3000) to the Azotobacter vinelandii CA (ASM38033v1) cds sequences. Custom perl scripts were used to extract the uniquely mapped reads and calculate the read count per million mapped reads (multi and uniquely mapped) per kilobase of gene for each gene.
# soil consortia cultures = assay: Acetylene reduction method in soil consortia nitrogen free cultures; format: cell-based; conditions: 25 ug/mL, Burks-N, 72 h, control nd
# Procedure: One flask culture per soil received an AB09 treatment and the other received a control treatment of water. After 72 h of growth, 5 mL of each culture were analyzed for nitrogenase activity using the acetylene reduction method. […] Soil from agricultural areas was air dried and sieved with a 2 mm sieve. Five hundred milligrams of dried, sieved soil was added to 50 mL of Burks-N media in a 250 mL baffled flask. AB09 was added to 25 ug/mL and water was added in equivalent amounts for controls. Flasks were topped with a foam plug and incubated at 30 C, shaking at 100 rpm. After 72 h, 5 mL of the soil culture was transferred to 20 mL autosampler vials and analyzed for ethylene gas with the acetylene reduction technique and GC/MS as described as above.
# [2] = tested on: soil consortia cultures with corn plant; assay: Phosphate solubilization with corn (foliar spray or soil applied) in soil consortia cultures; format: in vivo, B73 Corn
# Text: In order to test the ability of AB09 to stimulate a phosphate solubilization phenotype when applied on plants versus directly into soil, a 3 week old corn plant was introduced into the soil consortia cultures. Approximately two weeks prior to the experiment, corn plants were removed from soil and roots were cleaned of potting soil. […] Corn leaves were sprayed with AB09 (roots protected with foil during spray application) and roots were placed in flasks of NBRIP liquid media and soil inoculant (FIG. 4B). The flasks were placed on a low speed orbital shaker under fluorescent lights and the media supernatant was tested for phosphate concentration after 24 h.
# FIG. 4A illustrates that B73 Corn plants were grown until V3 growth stage, removed from soil, rinsed, and placed in tap water for 1.5 weeks to induce nutrient stress FIG. 4B illustrates that plants received either foliar (3 mL/plant using a fingertip sprayer) or soil applied treatments and were placed in 250 mL baffled flasks containing 50 mL NBRIP growth medium ([53 mM] Ca3(PO4)2) and 500 mg of 2 mm particle-sized soil. Flasks with treated corn and sterilized foam caps with were placed on orbital shakers at 100 RPM for 1 day at room temperature under fluorescent lights. FIG. 4C illustrates that orthophosphate was measured using the malachite-green phosphate method. […]
# tomato = assay: Field trials in tomato; format: in vivo
# Text: Field trials show both increasing yield and larger, higher quality fruits. Tomato yields were increased by up to 40% in California field trials.
smiles,measurement,setting,value
"CC1=CC(Oc2c(C)occc2=O)OC1=O (stereo not drawn) [AB09, maltol lactone]",gene expression (Illumina RNASeq) in presence vs absence of AB09,Bradyrhizobium japonicum,induced genetic regulators and pathways for nitrogen fixation and for microaerophilic growth
same,"expression of nif operon structural genes nifH, nifD and nifK over control cultures",[1],increase
same,% Ethylene (nitrogenase activity),soil consortia cultures; Alpha soil,14.5%
same,% Ethylene (nitrogenase activity),soil consortia cultures; Bennet soil,0.7%
same,% Ethylene (nitrogenase activity),soil consortia cultures; U of I soil,4.2%
same,"phosphate solubilization, treatment directly applied to the soil supernatant","[2]; corn roots in NBRIP with soil inoculant, after 24 h",increase
same,"phosphate solubilization, treatment applied to corn leaves as a foliar spray","[2]; two treatment doses (25 or 50 ug/mL, 3 mL/plant), media supernatant after 24 h",increase
same,increase of tomato yields,tomato; California field trials,up to 40%
same,tomato fruit size and number,tomato; treated plants,larger and more numerous fruits
